SMILES | melting point [°C]
COC(=O)c1cc2occc2[nH]1 | 139 to 140
CCc1ccc2cc(O)c(O)cc2c1 | 149
CC(=O)c1cc(OC(F)(F)F)ccc1O | 30
Nc1nc(O)cc(Cl)n1 | 262
Cc1cc(C)c(C2(C)CC(C(=NO)c3cc4cc(Br)ccc4o3)C2)c(C)c1 (configuration not stated) | 221 to 222
COC(=O)c1c(O)cc(O)cc1O | 177
N=C(N)N1CCc2ccccc2C1 | 279
Clc1ccc(C=NNc2ncnc3c2cnn3-c2ccccc2)cc1 | 280 to 282
CN(C)CCCN1c2ccccc2CCc2ccc(Cl)cc21 | 190
Cc1nc([N+](=O)[O-])cn1CCC(N)=NO | 207
Cc1cc(C(=O)O)cc(Cl)n1 | 193
CNc1cnn(-c2cccc(C(F)(F)F)c2)c(=O)c1Cl | 184
COc1ccc(N=[N+]([O-])c2ccc(OC)cc2)cc1 | 132
Cc1cc(O)c(C(C)C)cc1C1(c2cc(C(C)C)c(O)cc2C)OS(=O)(=O)c2ccccc21 | 221
CC(C)(C)OC(=O)NC(CO)C(=O)O (configuration not stated) | 90.5
CC(=O)c1ccc(S(C)(=O)=O)cc1 | 129 to 131
O=C(OCc1ccccc1)N1CCC(CBr)CC1 | 68
COc1ccc2nc(-c3ccccc3)cc(Cl)c2c1 | 121 to 124
N#Cc1sc(Br)c2c1OCCO2 | 149 to 150
O=Cc1ccc(N2CCCC2=O)cc1 | 121 to 122
NC(=O)C[C@H](NC(=O)OCC1c2ccccc2-c2ccccc21)C(=O)O | 180
N[C@@H](CCl)C(=O)O | 156 to 157
O=C1c2[nH]c3ccc(Br)cc3c2CCN1Cc1ccc(Cl)cc1 | 233

SMILES | melting point [°C]
O=Cc1csc2ccc(Br)cc12 | 106 to 107
COc1ccc(CO)c(OC)c1 | 37 to 40
Oc1ccc(C2CCCCC2)cc1Cl | 40.5
COP(=S)(OC)Oc1ccc([N+](=O)[O-])c(C)c1 | 3.4
COc1ccc(C2Nn3c(nnc3-c3ccccc3OC)S2)cc1 (configuration not stated) | 203 to 204
COc1ccc(Br)cc1[N+](=O)[O-] | 87 to 88
CCN(CC)C(=O)Cl | -32
C=C1C(=O)C23C4CC5C(C)(C)CCC(OC(C)=O)C5(C)C2C(OC(C)=O)CC1(O)C3OC(C)(C)O4 (configuration not stated) | 246
O=C(O)C=CC(=O)Nc1ccccc1 | 177
Cc1cccc(O)n1 | 159
Cc1cc(Br)cc(Cl)c1N | 38.5
CC/C=C\C(C)(C)C | -137
O=Cc1c(-c2ccccc2)nc2n1CCS2 | 127 to 128
OCc1ccccc1-c1ccco1 | 72
CCCCCCCCCCCCCCCCCCC(=O)NC | 91 to 94
CC(=O)Nc1ccccc1C=Cc1cc(C=Cc2ccccc2NC(C)=O)c([N+](=O)[O-])cc1[N+](=O)[O-] | 270
O=Cc1ccc(F)c(Cl)c1 | 28 to 30
CCC(=O)OCN1C(=O)NC(c2ccccc2)(c2ccccc2)C1=O | 171
CCNCC(=O)O | 182 to 186
FC(F)(Br)C(F)(F)C(F)(F)C(F)(F)C(F)(F)C(F)(F)C(F)(F)C(F)(F)Br | 40
CCCCC(=O)OCCC | -70.7
Cn1c(S)nnc1Cc1nc(-c2cnccn2)no1 | 203 to 204
CC(=O)N=c1c(-c2ccccc2)cc2cc3cc(-c4ccccc4)c(=NC(C)=O)n(C(C)=O)c3cc2n1C(C)=O | 238 to 240

SMILES | melting point [°C]
CCO[Si](CCCN)(OCC)OCC | -70
NNC(=O)C1CCCCC1 | 153 to 155
CC(C)C12CCC(C)(O1)C(=O)OC2=O (configuration not stated) | 109
Sc1ccc2ccccc2c1 | 81
CS[C@H]1C(=O)[C@@H]2CC[C@]3(C)[C@@H](OC(C)(C)C)CC[C@]13[C@H]2Cl | 108
c1ccc(-c2nccnc2-c2ccccc2)cc1 | 121
COC(=O)C1(S(=O)(=O)c2ccc(Br)cc2)CCC1 | 95
Brc1ccc2occ(Br)c2c1 | 77 to 78
CN(c1c(Br)cc(Br)cc1Br)c1c([N+](=O)[O-])cc([N+](=O)[O-])cc1C(F)(F)F | 150
Nc1ccc2c(c1)S(=O)(=O)C=C2 | 150
COc1ccccc1/C=C/C(=O)O | 185
O=C(Oc1cccc(N=Nc2cccc(OC(=O)c3ccccc3)c2)c1)c1ccccc1 | 180
c1ccc2nnccc2c1 | 38
CC(=O)N(C(C)=O)c1ccccc1 | 37.5
CCOc1ccc([N+](=O)[O-])cc1N | 96.5
O=c1c2ccccc2oc2ncccc12 | 180 to 182
S=C=Nc1ccc(Oc2ccccc2)nc1 | 41 to 42
Fc1c(F)c(F)c(P(CCP(c2c(F)c(F)c(F)c(F)c2F)c2c(F)c(F)c(F)c(F)c2F)c2c(F)c(F)c(F)c(F)c2F)c(F)c1F | 190 to 195
O=C1C(c2ccccc2)=C(c2ccccc2)C(c2ccccc2)=C1c1ccccc1 | 217 to 222
Cc1ccc(C(O)(c2ccc(C)cc2)C2(C)CCC(C(=O)O)C(C)(C)O2)cc1 (configuration not stated) | 152
Cc1cccc(/N=N/c2c(N)nn3c(C(F)(F)F)cc(=O)[nH]c23)c1 | 280
O=C(O)c1ccc(S)cc1 | 219
CC(C)C(C)N (configuration not stated) | -50

SMILES | melting point [°C]
CCCCCCCOC(C)=O | -50.2
ClCc1cc2cc(Br)ccc2o1 | 63 to 64
O=C(CCl)N[C@@H](Cc1ccc(O)cc1)C(=O)O | 153 to 154
CC(C)OC(=O)[C@H](C)O | 1
CC#CC(C)CC (configuration not stated) | -108
Cc1c(N=C=O)cnn1-c1ccccc1 | 56 to 60
CC12CC3(C)CC(C)(C1)CC(C(=O)O)(C2)C3 | 149 to 151
N=CN | 81
COc1cc(CC(=O)O)c([N+](=O)[O-])cc1OC | 111 to 112
O=C=Nc1cccc(-n2cccc2)c1 | 46 to 47
O=C(SSC(=O)c1ccccc1)c1ccccc1 | 134
Cc1c(F)c(F)c(C(=O)O)c(F)c1F | 174
Cc1cc2c(o1)-c1c(oc3ccc(Cl)cc13)CCC2C (configuration not stated) | 93
Clc1cccc(CBr)c1Cl | 29 to 32
CC(=O)OC1CC(=O)OC1=O (configuration not stated) | 55
COC(=O)c1cc(Cl)c(NC(C)=O)cc1OC | 155
Nc1cccc2c1Cc1ccccc1-2 | 126
Cc1ccc(S(=O)(=O)OCC#N)cc1 | 50 to 51
CCN(CC)CCN1C(=O)CN=C(c2ccccc2F)c2cc(Cl)ccc21 | 79.5
CC(C)C1CCC2(C)CC(O)C3(C)CCC12O3 (configuration not stated) | 114
CCC12CCCN(CCc3c([nH]c4ccccc34)CC1)C2 (configuration not stated) | 146
COc1ccc(C(C)=NO)cc1OC | 147 to 150
CCCCCCCCCCC(C)C(=O)O (configuration not stated) | 22
